Assay [1] has as its target T1, Ku complex (Homo sapiens, UniProt P12956+P13010). Put plainly: microwell protein induced fluorescent enhancement assay (mwPIFE) of Ku-DNA binding. The protocol:
A rapid method for detecting protein-nucleic acid interactions by protein induced fluorescence enhancement. Sci Rep 6, 39653. mwPIFE is based on enhanced fluorescence of cyanine fluorophores attached to nucleic acid probes upon protein binding. […] The probe was immobilized in 96 well plates through biotin (Btn) attached to one end of DNA and incubated with purified Ku complex (0.5 pmol) in 50 µl of binding buffer (10 mM calcium acetate, 60 mM potassium acetate, 20 mM TRISacetate pH 7.9, 100 mg BSA/1). Ku-DNA binding was calculated from altered fluorescence measured by a fluorescence plate reader (Valuchova et al., 2016). […]

For assay [2], the target named is T1, Ku complex. Put plainly: electrophoretic mobility shift assay (EMSA) of Ku binding to double stranded DNA. The settings on record: 98 bp DNA probe, compared with STL127705 (Figure 1). An excerpt:
We also compared iKU-1 (Compound 1) and the published Ku inhibitor STL127705 (Weterings, E., Gallegos, A.C., Dominick, L.N., Cooke, L.S., Bartels, T.N., Vagner, J., Matsunaga, T.O., and Mahadevan, D. (2016). A novel small molecule inhibitor of the DNA repair protein Ku70/80. DNA Repair (Amst) 43, 98-106) in their efficiency to inhibit binding of Ki to double stranded DNA by electrophoretic mobility shift assay (Figure 1). A 98 bp long oligonucleotide that can bind up to four Ku complexes was used as a probe.
DNA (0.6 nM) in 10 µl EMSA buffer (35 mM Tris-Cl pH 7.9, 150 mM KCl, 1 mM EDTA, 0.1 mM Dithiothreitol, 5% Glycerol) was mixed with 10 µl of human Ku complex (100 nM in EMSA buffer) preincubated with the inhibitors for 5 min at room temperature, and incubated for additional 10 min. DNA associated with Ku complexes was seprated by native polyacrylamide gel electrophoresis (5% polyacrylamide 29:1 [Sigma-Aldrich], 0.5 TBE) at 160 V for 4 hrs. Gels were dried in gel dryer on 3MM paper, exposed to phospho-screen (GE Healthcare) and the autoradiograms were generated by scanning with Typhoon (GE Healthcare).

The test system of the next assay is DNA-PKcs. The experiment in a line: DNA-PKcs autophosphorylation (S2056) after bleomycin, Western blotting in HCT116 cells. The settings on record: HCT116, pre-incubated 1 hr. The format is cell-based, human. The protocol: iKU-1 blocks activation of DNA-PKcs upon induction of DNA damage in vivo (Figure 2). HCT116 cells were pre-incubated with iKU-1 for 1 hr in McCoy's 5a medium supplemented with 10% Fetal Bovine Serum, 2 mM L-Glutamine, Penicilin/Streptomycin 200 U/l each. DNA breaks were induced by addition of bleomycin and incubated for additional 4 hrs. DNA damage triggers DNA-PKcs activity that leads to its autophosphorylation at the residue 2056. The phosphorylated DNA-PKcs was detected by Western blotting using anti-pDNA PKcs (phospho S2056) antibody [EPR5670] (Abcam, ab124918) and the total amount of DNA-PKcs with the anti-DNA PKcs antibody (BioRad, AHP318), both in 1:10000 dilution in TBS-T buffer overnight at 4°C. The primary antibody was detected by immunostaining with IRDye 800CW-conjugated Goat anti-Rabbit IgG secondary antibody (dilution 1:20000 in TBS-T). The signal was imaged using Odyssey Imager (Li-Cor). […] The total level of DNA-PKcs was not altered by the treatment.
Background: In western blotting, separated proteins are transferred to a membrane and probed.

Assay [3] concerns HCT116 cells. The experiment in a line: DNA damage induction, immunodetection of γH2AX in nuclei. The format is cell-based, human. The settings on record: HCT116 incubated for 1 day. The protocol: iKU-1 induces DNA damage in treated cells (Figure 3). HCT116 cells were incubated for 1 day in McCoy's 5a medium with 10% Fetal Bovine Serum, 2 mM L-Glutamine and Penicilin/Streptomycin 200 U/l each and supplemented with iKU-1. DNA damage induction was assessed by immunodetection of yH2AX in nuclei with specific antibody (Anti-phospho-Histone H2A.X (Ser139) Antibody, clone JBW301, Merck; dilution 1:500) and Alexa Fluor-conjugated secondary antibody (Goat anti-Mouse IgG (H+L) Highly Cross-Adsorbed Secondary Antibody, Alexa Fluor™ Plus 647, Invitrogen/Thermofisher; dilution 1:500).

In assay [4] the test system is HCT116 cells. The experiment in a line: C-circle assay (extrachromosomal circular telomeric DNA). Particulars: C-circle assay in HCT116 cells treated for 3 to 7 days. In kind it is cell-based, human. On the procedure:
HCT116 cell were incubated for 3, 5 or 7 days in McCoy's 5a medium with 10% Fetal Bovine Serum, 2 mM L-Glutamine and Penicilin/Streptomycin 200 U/l each and supplemented with Compound 1-9. C-circle assay that utilizes rolling circle amplification of circular DNA by φ29 polymerase was performed as described in Henson, J.D., Lau, L.M., Koch, S., Martin La Rotta, N., Dagg, R.A., and Reddel, R.R. (2017). The C-Circle Assay for alternative-lengthening-of-telomeres activity. Methods 114, 74-84. Amplified circular telomeric DNA was detected by dot blot hybridization with P^32-labeled telomeric DNA oligonucleotide (5'-[…]-3' (SEQ ID NO: 6)) (Figure 4).

For assay [5], the system named is HCT116 cells. Put plainly: flow cytometry analysis of DNA content (cell cycle). In kind it is cell-based, human. The settings on record: HCT116 incubated for two days. On the procedure: HCT116 cells were incubated for two days in McCoy's 5a medium supplemented with 10% Fetal Bovine Serum, 2 mM L-Glutamine and Penicilin/Streptomycin 200 U/l each in the presence of iKU-1, harvested and fixed in cold 70% ethanol. Cells were recovered in PBS solution and resuspended in 200 µl of Vindel solution containing propidium iodide and RNAse A, and nuclear DNA content was measured by flow cytometry (Beckton Dickinson FACS Verse). Accumulation of cells in S-phase is apparent already after two days of the iKU-1 treatment.
On the technique in general: A flow cytometer gives signals particle by particle.

For another assay, the system named is U2OS. Put plainly: combination with BIBR1532, relative growth by ATPlite. The format is cell-based, human. Particulars: 10 µM BIBR1532, 0.25 µM iKU-1 or their combination, 4 days.

SMILES strings stand for the structures.

T1 sequence (P12956 whole entry): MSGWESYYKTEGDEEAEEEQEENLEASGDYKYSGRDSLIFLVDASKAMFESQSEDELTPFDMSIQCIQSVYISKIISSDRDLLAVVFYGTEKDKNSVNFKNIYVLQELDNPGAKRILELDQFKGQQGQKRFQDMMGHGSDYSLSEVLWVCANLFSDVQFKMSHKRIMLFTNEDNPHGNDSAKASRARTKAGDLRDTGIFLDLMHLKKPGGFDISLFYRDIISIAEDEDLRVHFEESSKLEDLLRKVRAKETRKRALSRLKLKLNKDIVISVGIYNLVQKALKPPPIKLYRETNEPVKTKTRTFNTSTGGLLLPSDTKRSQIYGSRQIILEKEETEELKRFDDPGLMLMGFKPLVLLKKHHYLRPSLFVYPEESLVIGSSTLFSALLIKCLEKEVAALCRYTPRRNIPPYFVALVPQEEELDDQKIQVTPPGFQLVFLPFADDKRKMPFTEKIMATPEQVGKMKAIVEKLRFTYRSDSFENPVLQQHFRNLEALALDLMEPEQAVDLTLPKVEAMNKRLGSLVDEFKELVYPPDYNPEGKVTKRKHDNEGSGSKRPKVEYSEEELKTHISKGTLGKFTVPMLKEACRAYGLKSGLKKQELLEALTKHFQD
T1 sequence (P13010 whole entry): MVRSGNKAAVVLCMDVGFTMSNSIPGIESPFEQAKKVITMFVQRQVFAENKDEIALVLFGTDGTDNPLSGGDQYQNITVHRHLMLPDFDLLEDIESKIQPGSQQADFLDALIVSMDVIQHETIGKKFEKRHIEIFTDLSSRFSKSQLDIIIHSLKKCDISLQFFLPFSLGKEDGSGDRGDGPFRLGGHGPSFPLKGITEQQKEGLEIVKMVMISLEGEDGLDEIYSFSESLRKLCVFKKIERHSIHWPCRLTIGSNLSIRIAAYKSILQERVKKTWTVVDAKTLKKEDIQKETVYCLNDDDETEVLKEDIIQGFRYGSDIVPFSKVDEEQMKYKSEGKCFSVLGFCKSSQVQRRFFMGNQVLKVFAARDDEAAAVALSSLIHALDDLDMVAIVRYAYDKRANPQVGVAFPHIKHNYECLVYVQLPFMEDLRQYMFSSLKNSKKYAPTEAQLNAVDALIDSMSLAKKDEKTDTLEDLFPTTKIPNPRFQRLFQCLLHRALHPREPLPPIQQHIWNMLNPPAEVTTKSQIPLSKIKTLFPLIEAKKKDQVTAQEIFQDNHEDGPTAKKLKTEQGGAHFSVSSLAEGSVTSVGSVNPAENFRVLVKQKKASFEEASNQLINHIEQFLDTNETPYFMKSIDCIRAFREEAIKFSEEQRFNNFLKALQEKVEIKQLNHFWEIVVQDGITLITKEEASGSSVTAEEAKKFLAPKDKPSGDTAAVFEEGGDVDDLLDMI

As a reminder, the IC50 is the concentration at which inhibition is half-maximal. Regarding `O=C(Nc1nc(-c2ccccn2)cs1)c1cncc(Br)c1` [Compound 1], the IC50 at Ku complex [1] (mwPIFE, estimated from the 0.5 to 8 µM concentration range, read-out: Inhibition of Ku-DNA binding IC50) was 3 µM. Besides, the remaining activity at 8 µM on Ku complex [1] (read-out: % binding at 8 µM (100% = 0.5% DMSO)) was determined as 5%. In addition, at Ku complex [2], the “efficiency to inhibit binding of Ku to double stranded DNA” value is “more potent inhibitor of Ku-DNA binding than STL127705”. Also, the “total level of DNA-PKcs” value with DNA-PKcs (then bleomycin for 4 hrs) is reported as “not altered”. Further, the “phosphorylation of DNA-PKcs (S2056)” value with DNA-PKcs (then bleomycin up to 30 µg/ml for 4 hrs) is on record as “blocked the phosphorylation”. Further, the “DNA damage induction (γH2AX signal)” value in the assay on HCT116 cells [3] was “formation of either nuclear foci or whole nuclear staining in a subset of cells”. In addition, the “Concentration inducing c-circle formation” value with HCT116 cells [4] amounted to 1 µM. In the assay on HCT116 cells [5], the cell cycle effect result is “cell cycle arrest in S-phase”. Further, the “relative growth assessed by ATPlite kit compared to the control sample treated with 0.5% DMSO” value with U2OS is on record as 0.81.

(Values after patent EP4342467A1, “KU INHIBITORS FOR USE IN TUMOR THERAPY” (Masarykova Univerzita, priority 2022, dated 2024).)
